Measured values published in patent publication US20130210846A1, “USE OF NOVEL PAN-CDK INHIBITORS FOR TREATING TUMORS” (BAYER INTELLECTUAL PROPERTY GMBH, priority 2010, published 2013).

Tests used:
CDK2/CycE = molecular target: T1, CDK2/CycE (Homo sapiens, UniProt P24941); experiment: CDK2/CycE kinase assay (Assay 2); assay type: biochemical; settings: 0.5 μM ATP, histon IIIS, 10 min 22° C.; read-out: CDK2/CycE (Assay 2) Concentration for half-maximal inhibition of the enzyme activity, IC50
T1 construct: purchased ProQinase GmbH, Freiburg, Germany; host or cells: baculovirus-infected insect cells (Sf9)
Protocol: Recombinant CDK2 and CycE-GST fusion proteins, purified from baculovirus-infected insect cells (Sf9), were purchased from ProQinase GmbH, Freiburg, Germany. Histon HIS, used as kinase substrate, was purchased from Sigma.
The reaction was stopped by adding EDTA solution (250 mM, pH 8.0, 15 μl/measuring point).
From each reaction mixture, 15 μl was applied to P30 filter strips (from Wallac), and unincorporated ^33P-ATP was removed by washing the filter strips three times, for 10 min each time, in 0.5% phosphoric acid. After drying the filter strips for 1 hour at 70° C., the filter strips were covered with scintillator strips (MeltiLex™ A, from Wallac) and stoved for 1 hour at 90° C. The amount of incorporated ^33P (substrate phosphorylation) was determined by scintillation measurement in a gamma-radiation measuring instrument (Wallac). […] The IC50 values were determined by means of a 4-parameter fit using the company's own software.

[1] = molecular target: T2, VEGF receptor tyrosine kinase-2 (VEGF-R2) (Homo sapiens, UniProt P35968); experiment: VEGF receptor-2 kinase assay (Assay 3); assay type: biochemical; settings: 8 μM ATP, poly-(Glu4Tyr), 10 min 22° C.; read-out: VEGF-R2 (Assay 3) Concentration for half-maximal inhibition of the enzyme activity, IC50
T2 construct: GST; made in house; host or cells: baculovirus-infected insect cells (Sf9)

MCF7 = experiment: Proliferation assay MCF7; assay type: cell-based, human; settings: MCF7, estrogen receptor-positive mamma carcinoma, 4 days, crystal violet
Procedure, shortened: (§1)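 Crystal violet absorbance (595 nm) after 4-day compound exposure; cells in DMEM/HAMS F12, 10% FCS, 2 mM glutamine, 1000–5000 cells/well. Dose range 0.01–30 μM, 0.5% DMSO final. Normalised to untreated (0% inhibition) and day-0 plate (100%); IC50 via 4-parameter fit.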

NCI-ADR-Res = experiment: Proliferation assay NCI-ADR-Res; assay type: cell-based; settings: Homo sapiens, 96 h, ovarial carcinoma, 4 days, crystal violet
Protocol: (§2) Cultivated human tumor cells (originally obtained from ATCC, HeLa-MaTu and HeLa-MaTu-ADR, originally obtained from Epo GmbH, Berlin, Germany) were plated at a density of 1000 to 5000 cells/measuring point, depending on the growth rate of the cell line, in a 96-well multititer plate in 200 μl of growth medium (DMEM/HAMS F12, 2 mM L-glutamine, 10% fetal calf serum). After 24 hours the cells of one plate (zero-point plate) were stained with crystal violet (see below), whereas the medium of the other plates was replaced with fresh culture medium (200 μl), to which the test substances had been added at various concentrations (0 μM, and in the range 0.01-30 μM; the final concentration of the solvent dimethyl sulfoxide was 0.5%). The cells were incubated for 4 days in the presence of the test substances. Cellular proliferation was determined by staining the cells with crystal violet: the cells were fixed by adding 20 μl/measuring point of an 11% glutaraldehyde solution for 15 min at room temperature. After washing the fixed cells with water three times, the plates were dried at room temperature. The cells were stained by adding 100 μl/measuring point of a 0.1% crystal violet solution (pH adjusted to pH3 by adding acetic acid). After washing the stained cells with water three times, the plates were dried at room temperature. The dye was dissolved by adding 100 μl/measuring point of a 10% acetic acid solution. The extinction was determined photometrically at a wavelength of 595 nm. The percentage change in cell growth was calculated by standardization of the measured values to the extinction values of the zero-point plate (=0%) and the extinction of the untreated (0 μM) cells (=100%). The measured data were standardized to 0% inhibition (cell proliferation without inhibitor) and 100% inhibition (zero-point plate). The IC50 values were determined by means of a 4-parameter fit using the company's own software.
(§3) The substances were examined in the following cell lines which, in an exemplary manner, represent the stated indications: […]

SW480 = experiment: Proliferation assay SW480; assay type: cell-based; settings: Homo sapiens, 96 h; SW480, colon/rectum carcinoma; 4 days, crystal violet
Protocol: as §2, §3

DU145 = experiment: Proliferation assay DU145; assay type: cell-based, human; settings: DU145, prostate carcinoma, 4 days, crystal violet
Procedure, shortened: as §1

NCI-H460 = experiment: Proliferation assay NCI-H460; assay type: cell-based, human; settings: NCI-H460, non-small-cell bronchial carcinoma, 4 days, crystal violet
Procedure, shortened: as §1

Caki2 = experiment: Proliferation assay Caki2; assay type: cell-based; settings: Homo sapiens, CAKI-2, 96 h; Caki2, kidney carcinoma; 4 days, crystal violet
Protocol: as §2, §3

786-O = experiment: Proliferation assay 786-O; assay type: cell-based; settings: Homo sapiens, 786-0, 96 h, kidney carcinoma, 4 days, crystal violet
Protocol: as §2, §3

MIA PaCa-2 = experiment: Proliferation assay MIA PaCa-2; assay type: cell-based; settings: Homo sapiens, 96 h; MIA PaCa-2, pancreas carcinoma; 4 days, crystal violet
Protocol: as §2, §3

HeLa = experiment: Proliferation assay HeLa; assay type: cell-based; settings: Homo sapiens, 96 h, cervix carcinoma, 4 days, crystal violet
Protocol: as §2, §3

A431 = experiment: Proliferation assay A431; assay type: cell-based; settings: Homo sapiens, A-431, 96 h; A431, skin: epidermis; 4 days, crystal violet
Protocol: as §2, §3

T2 sequence (P35968 20-1356, species assumed): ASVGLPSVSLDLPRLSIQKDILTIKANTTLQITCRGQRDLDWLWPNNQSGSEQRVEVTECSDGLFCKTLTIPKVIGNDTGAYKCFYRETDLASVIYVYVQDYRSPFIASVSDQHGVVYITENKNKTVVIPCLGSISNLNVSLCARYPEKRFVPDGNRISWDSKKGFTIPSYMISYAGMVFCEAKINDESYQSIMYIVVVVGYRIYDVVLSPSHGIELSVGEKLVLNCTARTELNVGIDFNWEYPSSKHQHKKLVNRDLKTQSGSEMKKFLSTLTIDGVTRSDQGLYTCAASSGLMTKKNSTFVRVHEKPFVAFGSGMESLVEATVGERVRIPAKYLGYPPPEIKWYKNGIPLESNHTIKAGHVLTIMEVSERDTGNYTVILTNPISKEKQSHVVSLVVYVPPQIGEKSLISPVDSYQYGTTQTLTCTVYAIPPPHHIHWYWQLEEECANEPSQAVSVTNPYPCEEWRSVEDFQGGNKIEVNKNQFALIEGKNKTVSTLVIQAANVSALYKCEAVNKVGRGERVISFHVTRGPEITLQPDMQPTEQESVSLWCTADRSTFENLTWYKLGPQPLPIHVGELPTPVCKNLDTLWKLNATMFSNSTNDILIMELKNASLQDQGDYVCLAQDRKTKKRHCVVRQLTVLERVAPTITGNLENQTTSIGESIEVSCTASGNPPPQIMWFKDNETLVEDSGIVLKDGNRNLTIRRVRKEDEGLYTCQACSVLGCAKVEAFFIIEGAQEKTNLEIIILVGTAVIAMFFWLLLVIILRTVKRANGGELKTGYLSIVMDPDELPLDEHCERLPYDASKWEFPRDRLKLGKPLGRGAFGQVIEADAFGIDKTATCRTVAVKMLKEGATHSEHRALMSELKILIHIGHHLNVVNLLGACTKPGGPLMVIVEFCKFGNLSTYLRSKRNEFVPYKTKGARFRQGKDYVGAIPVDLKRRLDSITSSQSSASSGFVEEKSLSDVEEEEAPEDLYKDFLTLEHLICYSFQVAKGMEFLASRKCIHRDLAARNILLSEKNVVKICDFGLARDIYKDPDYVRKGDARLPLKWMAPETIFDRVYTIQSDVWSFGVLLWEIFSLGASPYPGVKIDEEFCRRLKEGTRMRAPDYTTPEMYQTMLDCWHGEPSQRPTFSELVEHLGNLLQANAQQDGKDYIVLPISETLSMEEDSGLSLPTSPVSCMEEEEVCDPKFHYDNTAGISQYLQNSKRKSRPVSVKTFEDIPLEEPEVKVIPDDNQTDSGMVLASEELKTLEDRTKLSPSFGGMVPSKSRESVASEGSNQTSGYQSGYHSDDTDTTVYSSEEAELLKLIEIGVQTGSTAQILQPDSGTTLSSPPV

Compound	IC50 (CDK2/CycE) [nM]	IC50 [1] [nM]	IC50 (MCF7; Homo sapiens, MCF7, 96 h) [nM]	IC50 (NCI-ADR-Res) [nM]	IC50 (SW480) [nM]	IC50 (DU145; Homo sapiens, DU-145, 96 h) [nM]	IC50 (NCI-H460; Homo sapiens, NCI-H460, 96 h) [nM]	IC50 (Caki2) [nM]	IC50 (786-O) [nM]	IC50 (MIA PaCa-2) [nM]	IC50 (HeLa) [nM]	IC50 (A431) [nM]	IC50 (MCF7) [nM]	IC50 (DU145) [nM]	IC50 (NCI-H460) [nM]
C[C@@H](O)[C@@H](C)Nc1nc(Nc2ccc(S(=N)(=O)C3CC3)cc2)ncc1C(F)(F)F (mixture of isomers) [Example 4-SI-1, (RS)—S-Cyclopropyl-S-(4-{[4-{[(1R,2R)-2-hydroxy-1-methylpropyl]amino}-5-(trifluoromethyl)-pyrimidin-2-yl]amino}phenyl)sulfoximide]	6	46	34	37	22	31	16	< 10	30	14	33	20			
C[C@@H](O)[C@@H](C)Oc1nc(Nc2ccc(S(C)(=N)=O)cc2)ncc1C(F)(F)F (mixture of isomers) [Example 2-SI-2, (RS)—S-(4-{[4-{[(1R,2R)-2-Hydroxy-1-methylpropyl]oxy}-5-(trifluoromethyl)pyrimidin-2-yl]-amino}phenyl)-S-methylsulfoximide]													11	9	16
C[C@@H](O)[C@@H](C)Oc1nc(Nc2ccc(S(C)(=N)=O)cc2)ncc1C(F)(F)F (single isomer, unassigned) [Example 2-SI-2]	5	281		29	19			24	22	19	13	17			
